The values below come from ChEMBL document CHEMBL1201862, “PubChem BioAssay data set” (2004).

Common to all, as to format: functional
Assay [1] addresses Genome polyprotein (dengue virus type 2, UniProt P29990). The assay is described as follows: flavivirus cap methylation enzyme inhibition – biochemical, confirmation dose response, primary screen (AID 588689).
For assay [2], the target named is T1, Protein RecA (Mycobacterium tuberculosis, UniProt P9WHJ3).
T1 sequence (P9WHJ3 whole entry): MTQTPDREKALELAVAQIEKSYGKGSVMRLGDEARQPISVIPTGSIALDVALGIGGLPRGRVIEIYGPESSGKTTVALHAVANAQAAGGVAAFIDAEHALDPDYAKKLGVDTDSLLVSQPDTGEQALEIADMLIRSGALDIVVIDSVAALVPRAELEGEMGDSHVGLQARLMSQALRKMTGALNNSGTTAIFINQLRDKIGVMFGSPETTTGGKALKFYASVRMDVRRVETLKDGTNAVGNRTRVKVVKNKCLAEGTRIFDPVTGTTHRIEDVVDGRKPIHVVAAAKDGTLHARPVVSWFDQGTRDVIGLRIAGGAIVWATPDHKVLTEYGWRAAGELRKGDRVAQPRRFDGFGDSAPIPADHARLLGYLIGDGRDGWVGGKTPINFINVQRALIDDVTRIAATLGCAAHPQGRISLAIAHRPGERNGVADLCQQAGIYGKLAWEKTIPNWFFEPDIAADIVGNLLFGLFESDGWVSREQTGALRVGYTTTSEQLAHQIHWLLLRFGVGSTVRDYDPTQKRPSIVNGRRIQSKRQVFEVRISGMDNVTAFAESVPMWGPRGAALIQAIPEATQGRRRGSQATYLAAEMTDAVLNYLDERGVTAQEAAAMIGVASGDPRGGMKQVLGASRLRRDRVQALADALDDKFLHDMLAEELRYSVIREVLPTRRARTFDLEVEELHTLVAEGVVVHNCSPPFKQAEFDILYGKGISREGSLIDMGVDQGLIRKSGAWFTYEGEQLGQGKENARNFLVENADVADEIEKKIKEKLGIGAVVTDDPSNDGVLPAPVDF
The assay is described as follows: Fluorescence Cell-Free Homogeneous Dose Retest to Identify Inhibitors of RecA-Intein Splicing Activity. [Related pubchem assays (depositor defined):AID2097, AID2223, AID489010, AID492950].

Assay [3] has as its target Casein kinase I isoform delta (Homo sapiens, UniProt P48730).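 Further: measured as one member (CSNK1D) of a kinome panel.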
The target of assay [4] is Interleukin-1 receptor-associated kinase 4 (Homo sapiens, UniProt Q9NWZ3).
Assay [5] concerns the target Dual specificity protein kinase CLK4 (Homo sapiens, UniProt Q9HAZ1).
Assay [6] deals with Homeodomain-interacting protein kinase 2 (Homo sapiens, UniProt Q9H2X6).
Chain of Homeodomain-interacting protein kinase 2 (Q9H2X6 whole entry, canonical isoform): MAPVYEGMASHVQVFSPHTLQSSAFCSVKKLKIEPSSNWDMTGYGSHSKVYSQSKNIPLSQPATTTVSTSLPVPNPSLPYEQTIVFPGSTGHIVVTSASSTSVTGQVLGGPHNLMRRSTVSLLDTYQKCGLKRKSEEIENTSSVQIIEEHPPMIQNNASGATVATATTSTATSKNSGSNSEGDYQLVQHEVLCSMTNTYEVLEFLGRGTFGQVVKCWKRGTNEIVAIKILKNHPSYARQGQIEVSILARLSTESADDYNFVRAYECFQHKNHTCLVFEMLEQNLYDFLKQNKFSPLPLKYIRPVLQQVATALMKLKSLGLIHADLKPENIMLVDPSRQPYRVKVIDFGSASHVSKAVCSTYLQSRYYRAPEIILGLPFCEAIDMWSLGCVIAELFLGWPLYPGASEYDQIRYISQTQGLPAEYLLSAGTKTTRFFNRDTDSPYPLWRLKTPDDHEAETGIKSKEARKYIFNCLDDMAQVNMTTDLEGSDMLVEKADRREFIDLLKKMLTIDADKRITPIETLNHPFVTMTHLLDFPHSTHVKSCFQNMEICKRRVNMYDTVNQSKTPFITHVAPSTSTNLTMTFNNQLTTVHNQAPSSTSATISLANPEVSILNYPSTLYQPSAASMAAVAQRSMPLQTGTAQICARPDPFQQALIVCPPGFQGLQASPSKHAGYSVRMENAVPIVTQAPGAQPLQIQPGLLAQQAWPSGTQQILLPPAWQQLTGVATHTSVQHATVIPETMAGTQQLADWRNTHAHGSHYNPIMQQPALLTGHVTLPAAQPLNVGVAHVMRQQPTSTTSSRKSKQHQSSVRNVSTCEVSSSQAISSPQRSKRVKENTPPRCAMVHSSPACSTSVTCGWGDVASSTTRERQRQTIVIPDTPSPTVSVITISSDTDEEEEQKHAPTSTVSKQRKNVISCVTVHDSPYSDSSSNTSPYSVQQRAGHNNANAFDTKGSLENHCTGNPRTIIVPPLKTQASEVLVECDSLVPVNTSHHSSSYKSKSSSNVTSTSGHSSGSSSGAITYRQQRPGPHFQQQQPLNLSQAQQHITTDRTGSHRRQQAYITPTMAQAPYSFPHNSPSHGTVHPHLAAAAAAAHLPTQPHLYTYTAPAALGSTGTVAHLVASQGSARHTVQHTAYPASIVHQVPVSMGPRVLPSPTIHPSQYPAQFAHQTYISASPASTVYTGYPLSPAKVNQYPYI
For assay [7], the target named is Casein kinase I isoform alpha (Homo sapiens, UniProt P48729).
Chain of Casein kinase I isoform alpha (P48729 whole entry, canonical isoform): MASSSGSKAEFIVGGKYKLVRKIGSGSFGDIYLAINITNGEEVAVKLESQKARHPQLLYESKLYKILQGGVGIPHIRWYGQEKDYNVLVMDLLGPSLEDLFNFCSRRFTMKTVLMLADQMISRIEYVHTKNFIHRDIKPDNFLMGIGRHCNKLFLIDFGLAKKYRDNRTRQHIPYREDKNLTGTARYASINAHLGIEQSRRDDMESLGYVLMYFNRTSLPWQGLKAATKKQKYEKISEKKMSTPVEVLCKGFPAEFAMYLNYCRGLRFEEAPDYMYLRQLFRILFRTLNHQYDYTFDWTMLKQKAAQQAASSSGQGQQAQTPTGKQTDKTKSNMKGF
Assay [8] concerns the target Serine/threonine-protein kinase pim-1 (Homo sapiens, UniProt P11309).
Assay [9] addresses Calcium/calmodulin-dependent protein kinase type II subunit gamma (Homo sapiens, UniProt Q13555).
Assay [10] has as its target Glycogen synthase kinase-3 beta (Homo sapiens, UniProt P49841).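 Further: value comes from a broad kinome profiling panel, with GSK3B as the panel member.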
Assay [11] deals with MAP kinase-interacting serine/threonine-protein kinase 2 (Homo sapiens, UniProt Q9HBH9).
In assay [12] the target is Serine/threonine-protein kinase Nek2 (Homo sapiens, UniProt P51955).
For assay [13], the target named is Protein kinase C gamma type (Homo sapiens, UniProt P05129).
The target in assay [14] is Non-receptor tyrosine-protein kinase TYK2 (Homo sapiens, UniProt P29597).
Assay [15] concerns the target Misshapen-like kinase 1 (Homo sapiens, UniProt Q8N4C8).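 Further: kinome panel screen with MINK as the panel member.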
For assay [16], the target named is Insulin receptor (Homo sapiens, UniProt P06213).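 Further: insulin receptor kinase tested as one member of a kinome-wide kinase panel.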
Assay [17] deals with Calcium/calmodulin-dependent protein kinase type II subunit delta (Homo sapiens, UniProt Q13557).
Chain of Calcium/calmodulin-dependent protein kinase type II subunit delta (Q13557 whole entry): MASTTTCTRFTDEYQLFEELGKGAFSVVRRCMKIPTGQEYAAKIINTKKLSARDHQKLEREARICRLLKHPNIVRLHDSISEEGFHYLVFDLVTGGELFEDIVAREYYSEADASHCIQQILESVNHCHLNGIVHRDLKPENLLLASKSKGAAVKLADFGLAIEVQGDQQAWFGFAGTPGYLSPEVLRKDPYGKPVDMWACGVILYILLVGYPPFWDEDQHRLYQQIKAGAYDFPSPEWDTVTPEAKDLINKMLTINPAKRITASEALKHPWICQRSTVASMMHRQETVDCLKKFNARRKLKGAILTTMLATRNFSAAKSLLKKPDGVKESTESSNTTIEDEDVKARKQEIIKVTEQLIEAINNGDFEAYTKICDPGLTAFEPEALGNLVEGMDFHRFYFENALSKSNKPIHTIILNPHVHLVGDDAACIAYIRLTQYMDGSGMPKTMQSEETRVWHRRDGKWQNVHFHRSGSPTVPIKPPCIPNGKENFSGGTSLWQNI
Assay [18] addresses Dual specificity tyrosine-phosphorylation-regulated kinase 3 (Homo sapiens, UniProt O43781).
The target of assay [19] is Serine/threonine-protein kinase MRCK alpha (Homo sapiens, UniProt Q5VT25).
Assay [20] deals with RAC-alpha serine/threonine-protein kinase (Homo sapiens, UniProt P31749).
Assay [21] addresses Serine/threonine-protein kinase Nek4 (Homo sapiens, UniProt P51957).
The target in assay [22] is Insulin-like growth factor 1 receptor (Homo sapiens, UniProt P08069). The assay is described as follows: Navigating the Kinome. Panel member name: IGF1R.
Assay [23] addresses cAMP-dependent protein kinase catalytic subunit alpha (Homo sapiens, UniProt P17612).
Assay [24] deals with Aurora kinase B (Homo sapiens, UniProt Q96GD4).
The target in assay [25] is Mitogen-activated protein kinase 12 (Homo sapiens, UniProt P53778).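 Further: measured as one member of a kinome-wide kinase profiling panel.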
In assay [26] the target is Glycogen synthase kinase-3 alpha (Homo sapiens, UniProt P49840).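 Further: GSK3A result taken from a broad kinome-wide kinase panel.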
Assay [27] concerns the target Vascular endothelial growth factor receptor 2 (Homo sapiens, UniProt P35968).
Assay [28] has as its target Receptor tyrosine-protein kinase erbB-4 (Homo sapiens, UniProt Q15303).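 Further: ERBB4 member of a kinome-wide kinase profiling panel.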
Assay [29] has as its target ALK tyrosine kinase receptor (Homo sapiens, UniProt Q9UM73).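 Further: ALK tested as one member of a kinase panel screen.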
Assay [30] has as its target Rho-associated protein kinase 1 (Homo sapiens, UniProt Q13464).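 Further: measured within a broad kinome-wide panel profiling many kinases.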
Assay [31] has as its target Serine/threonine-protein kinase TAO1 (Homo sapiens, UniProt Q7L7X3).

Activity calls are given as the source filed them. A value given as a limit tells only on which side of the number the result lay.

Chain of Receptor tyrosine-protein kinase erbB-4 (Q15303 whole entry): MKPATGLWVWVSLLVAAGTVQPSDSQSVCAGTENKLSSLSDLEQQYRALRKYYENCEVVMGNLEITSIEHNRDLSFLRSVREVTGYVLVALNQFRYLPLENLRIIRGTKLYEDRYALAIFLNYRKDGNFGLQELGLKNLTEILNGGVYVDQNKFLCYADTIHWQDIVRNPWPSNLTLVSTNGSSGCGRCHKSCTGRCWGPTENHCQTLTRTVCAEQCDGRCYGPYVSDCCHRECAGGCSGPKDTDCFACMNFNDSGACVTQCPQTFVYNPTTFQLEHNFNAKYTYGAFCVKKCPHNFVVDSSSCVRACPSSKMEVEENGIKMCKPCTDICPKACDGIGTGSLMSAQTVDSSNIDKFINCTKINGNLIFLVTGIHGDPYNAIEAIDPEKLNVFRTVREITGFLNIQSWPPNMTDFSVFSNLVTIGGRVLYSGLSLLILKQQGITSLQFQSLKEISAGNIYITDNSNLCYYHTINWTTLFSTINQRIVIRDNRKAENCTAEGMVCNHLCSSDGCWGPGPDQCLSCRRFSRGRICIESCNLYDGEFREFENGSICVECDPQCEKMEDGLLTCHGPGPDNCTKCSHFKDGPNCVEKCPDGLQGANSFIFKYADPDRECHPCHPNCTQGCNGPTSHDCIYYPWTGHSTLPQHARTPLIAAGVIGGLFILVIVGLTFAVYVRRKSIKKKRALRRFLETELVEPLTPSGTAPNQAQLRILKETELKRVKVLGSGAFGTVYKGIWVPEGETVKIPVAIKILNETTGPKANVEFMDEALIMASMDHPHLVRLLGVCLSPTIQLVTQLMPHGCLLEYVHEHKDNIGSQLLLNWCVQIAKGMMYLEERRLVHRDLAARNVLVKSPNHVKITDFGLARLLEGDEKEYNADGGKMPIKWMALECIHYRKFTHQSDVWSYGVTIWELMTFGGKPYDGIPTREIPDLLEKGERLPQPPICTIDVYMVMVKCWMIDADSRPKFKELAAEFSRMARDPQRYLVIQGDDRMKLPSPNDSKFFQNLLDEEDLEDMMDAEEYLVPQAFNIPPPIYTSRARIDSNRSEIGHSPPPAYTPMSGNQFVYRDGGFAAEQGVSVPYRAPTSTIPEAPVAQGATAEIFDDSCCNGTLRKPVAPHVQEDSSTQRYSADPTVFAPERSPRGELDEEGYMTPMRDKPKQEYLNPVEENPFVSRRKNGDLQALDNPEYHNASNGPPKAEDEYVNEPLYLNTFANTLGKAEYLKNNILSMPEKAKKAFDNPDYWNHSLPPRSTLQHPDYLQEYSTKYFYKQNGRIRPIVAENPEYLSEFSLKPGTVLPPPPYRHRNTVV
Chain of Calcium/calmodulin-dependent protein kinase type II subunit gamma (Q13555 whole entry): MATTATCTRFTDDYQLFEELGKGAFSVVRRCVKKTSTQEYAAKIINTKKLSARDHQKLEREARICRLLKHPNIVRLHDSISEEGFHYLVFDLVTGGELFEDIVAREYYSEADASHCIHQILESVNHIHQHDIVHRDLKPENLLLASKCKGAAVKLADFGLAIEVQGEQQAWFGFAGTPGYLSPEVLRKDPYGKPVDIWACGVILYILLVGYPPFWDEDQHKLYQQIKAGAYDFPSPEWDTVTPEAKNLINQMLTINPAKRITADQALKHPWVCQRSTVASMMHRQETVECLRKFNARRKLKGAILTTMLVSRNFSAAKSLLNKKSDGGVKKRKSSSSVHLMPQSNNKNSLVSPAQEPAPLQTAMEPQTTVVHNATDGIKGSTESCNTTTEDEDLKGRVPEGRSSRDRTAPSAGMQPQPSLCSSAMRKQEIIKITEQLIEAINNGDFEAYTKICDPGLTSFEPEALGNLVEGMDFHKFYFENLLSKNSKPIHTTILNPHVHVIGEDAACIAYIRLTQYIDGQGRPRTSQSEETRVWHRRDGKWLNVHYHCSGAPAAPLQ
Chain of Casein kinase I isoform delta (P48730 whole entry, canonical isoform): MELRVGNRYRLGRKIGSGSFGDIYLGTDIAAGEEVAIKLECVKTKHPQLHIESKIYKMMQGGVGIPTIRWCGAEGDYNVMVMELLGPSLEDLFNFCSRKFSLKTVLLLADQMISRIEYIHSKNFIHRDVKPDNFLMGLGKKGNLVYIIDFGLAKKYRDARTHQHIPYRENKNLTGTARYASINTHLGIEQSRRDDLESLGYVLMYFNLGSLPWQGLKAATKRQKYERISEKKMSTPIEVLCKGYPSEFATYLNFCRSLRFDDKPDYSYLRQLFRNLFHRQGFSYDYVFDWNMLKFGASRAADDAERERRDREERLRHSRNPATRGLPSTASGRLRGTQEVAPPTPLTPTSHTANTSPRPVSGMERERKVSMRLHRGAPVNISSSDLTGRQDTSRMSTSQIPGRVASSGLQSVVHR

In the case of `CCc1ccc(S(=O)(=O)/N=C2\C=C(NS(=O)(=O)c3ccccc3)C(=O)c3ccccc32)cc1`, the IC50 in assay [1] is 22.9 µM (active). Further, the EC50 in assay [2] was 3.08 µM (active).

On to `Cn1cncc1C(OCc1c(-c2ccc(OC(F)(F)F)cc2)cc(C#N)c(=O)n1C)c1ccc(C#N)cc1` (stereo unspecified), for which the Ki in assay [3] is > 7.94 µM (inactive); in assay [4], > 10 µM (inactive); in assay [5] it was > 10 µM (inactive); in assay [6] it was > 3.16 µM (inactive); in assay [7], > 6.31 µM (inactive); in assay [8], > 10 µM (inactive). Also, the Ki was > 6.31 µM (inactive) in assay [9]; 2.51 µM (active) in assay [10]; > 10 µM (inactive) in assay [11]; > 10 µM (inactive) in assay [12]; > 7.94 µM (inactive) in assay [13]; > 2 µM (inactive) in [14]. Moreover, the Ki in assay [15] is > 7.94 µM (inactive); in [16], > 5.01 µM (inactive); in assay [17], > 6.31 µM (inactive); in [18], > 6.31 µM (inactive); in assay [19], > 10 µM (inactive); in [20] it was > 7.94 µM (inactive). Further, the Ki in assay [21] was > 6.31 µM (inactive); in assay [22] it was > 2 µM (inactive); in assay [23], > 7.94 µM (inactive); in assay [24], 0.158 µM (active); in assay [25] it was > 6.31 µM (inactive); in [26], > 7.94 µM (inactive). For the same compound, the Ki in assay [27] is > 7.94 µM (inactive); in assay [28], > 3.98 µM (inactive); in assay [29], > 6.31 µM (inactive); in assay [30], > 10 µM (inactive); in assay [31], 3.98 µM (active).

The IC50 is the concentration that inhibits the measured activity by half. For orientation: EC50 means the midpoint of the concentration-response curve. Broadly, the Ki is a measure of affinity in units of concentration, obtained from inhibition or displacement.
